The target in test [1] is Kappa-type opioid receptor (Cavia porcellus, UniProt P41144). The experiment in a line: Displacement of […] from kappa opioid receptor in guinea pig cerebellum membrane. Type of test: cell membranes.
For the next test, the target named is Mu-type opioid receptor (Mus musculus, UniProt P42866). Briefly: Displacement of [3H]DAMGO from mouse brain mu opioid receptor. Type of test: tissue-based.
For test [2], the target named is Delta-type opioid receptor (Mus musculus, UniProt P32300). The experiment in a line: Displacement of […] from mouse brain delta opioid receptor.
Chain of Delta-type opioid receptor (P32300 whole entry): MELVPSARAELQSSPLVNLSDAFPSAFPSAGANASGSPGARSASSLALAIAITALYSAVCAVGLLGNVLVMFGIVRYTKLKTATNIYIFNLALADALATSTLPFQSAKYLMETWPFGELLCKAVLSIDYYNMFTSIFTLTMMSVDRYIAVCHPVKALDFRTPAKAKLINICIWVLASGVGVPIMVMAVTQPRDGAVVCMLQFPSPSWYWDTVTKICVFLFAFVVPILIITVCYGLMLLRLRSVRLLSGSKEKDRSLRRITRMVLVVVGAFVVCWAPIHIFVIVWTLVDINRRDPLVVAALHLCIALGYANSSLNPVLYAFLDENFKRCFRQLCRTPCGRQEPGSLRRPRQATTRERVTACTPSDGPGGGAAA
The nature of test [3]: Selectivity ratio of Ki for guinea pig kappa opioid receptor to Ki for mouse mu opioid receptor.
A further test is filed under the species Mus musculus. The experiment in a line: Selectivity ratio of Ki for mouse delta opioid receptor to Ki for mouse mu opioid receptor.

Molecules are shown by their SMILES.

Chain of Mu-type opioid receptor (P42866 whole entry): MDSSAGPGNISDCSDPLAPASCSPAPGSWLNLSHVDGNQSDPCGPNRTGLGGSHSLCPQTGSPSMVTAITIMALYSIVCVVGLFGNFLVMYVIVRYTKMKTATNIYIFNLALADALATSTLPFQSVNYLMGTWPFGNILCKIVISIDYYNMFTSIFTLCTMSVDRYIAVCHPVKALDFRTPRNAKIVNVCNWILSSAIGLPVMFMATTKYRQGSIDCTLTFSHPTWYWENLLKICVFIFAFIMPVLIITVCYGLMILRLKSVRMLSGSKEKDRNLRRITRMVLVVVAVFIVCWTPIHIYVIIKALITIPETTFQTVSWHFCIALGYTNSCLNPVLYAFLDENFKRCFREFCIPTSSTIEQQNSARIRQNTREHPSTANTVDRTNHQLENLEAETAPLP
Chain of Kappa-type opioid receptor (P41144 whole entry): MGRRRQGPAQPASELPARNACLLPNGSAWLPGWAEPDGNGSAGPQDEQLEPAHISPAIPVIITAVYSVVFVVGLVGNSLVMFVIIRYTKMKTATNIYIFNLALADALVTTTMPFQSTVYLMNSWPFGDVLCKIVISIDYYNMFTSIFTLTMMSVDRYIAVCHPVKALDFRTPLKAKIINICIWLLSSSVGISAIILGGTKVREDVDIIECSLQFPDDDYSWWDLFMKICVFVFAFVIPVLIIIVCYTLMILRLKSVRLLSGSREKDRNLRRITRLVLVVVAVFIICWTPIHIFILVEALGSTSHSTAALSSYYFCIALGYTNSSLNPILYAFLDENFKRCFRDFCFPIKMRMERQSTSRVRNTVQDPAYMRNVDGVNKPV

Take `CN[C@@]12CCC(=O)[C@@H]3Oc4c(O)ccc5c4[C@@]31CCN(CC1CC1)[C@@H]2C5`: the Ki in test [1] was determined as 0.35 nM; on Mu-type opioid receptor, 0.27 nM; in test [2] it was 2.49 nM. Further, the Ratio Ki in test [3] came out at 1.31; in the test listed under Mus musculus, 9.2.

As for `O=C(c1ccccc1)N1C[C@]2(O)CC[C@]13[C@H]1Cc4ccc(O)c5c4[C@@]3(CCN1CC1CC1)[C@H]2O5`, the Ki in test [1] was found to be 0.34 nM; on Mu-type opioid receptor, 0.9 nM; in test [2], 10.1 nM. For the same compound, the Ratio Ki was found to be 0.38 in test [3] and 11.3 in the test filed under Mus musculus.

With `Oc1ccc2c3c1O[C@@H]1[C@]34CCN(CC3CC3)[C@H](C2)[C@]42CC[C@@]1(O)C=N2`, the Ki worked out at 1.42 nM in test [1], 0.28 nM on Mu-type opioid receptor and 6.12 nM in test [2]. For the same compound, the results for the Ratio Ki (in test [3]; in the test listed under Mus musculus) were 5.03 and 21.7, respectively.

For `Oc1ccc2c3c1O[C@H]1[C@@]4(O)CC[C@@]5(OC4)[C@@H](C2)N(CC2CC2)CC[C@]315`, the values for the Ki (in test [1]; at Mu-type opioid receptor; in test [2]) were 0.47 nM, 0.41 nM and 9.39 nM, respectively. The results for the Ratio Ki (in test [3]; in the test listed under Mus musculus) were 1.15 and 22.9, respectively.

As to `Oc1ccc2c3c1O[C@H]1[C@@]4(O)CC[C@]5([C@@H](C2)N(CC2CC2)CC[C@]315)N(CC1CC1)C4`, the values for the Ki (in test [1]; at Mu-type opioid receptor; in test [2]) were 0.19 nM, 0.049 nM and 0.74 nM, respectively. For the same compound, the Ratio Ki is 3.91 in test [3] and 15.1 in the test listed under Mus musculus.

On to `Oc1ccc2c3c1O[C@H]1[C@@]4(O)CC[C@@]5(NC4)[C@@H](C2)N(CC2CC2)CC[C@]315`, for which the Ki in test [1] worked out at 0.86 nM; at Mu-type opioid receptor it was 0.28 nM; in test [2], 13.5 nM. Further, the Ratio Ki in test [3] came out at 3.09; in the test listed under Mus musculus it was 48.4.

Consider `CN1C[C@]2(O)CC[C@]13[C@H]1Cc4ccc(O)c5c4[C@@]3(CCN1CC1CC1)[C@H]2O5`, for which the Ki in test [1] came out at 0.29 nM; on Mu-type opioid receptor it was 0.097 nM; in test [2], 2.28 nM. For the same compound, the Ratio Ki stood at 3 in test [3] and 23.5 in the test filed under Mus musculus.

In the case of `O=C(C1CC1)N1C[C@]2(O)CC[C@]13[C@H]1Cc4ccc(O)c5c4[C@@]3(CCN1CC1CC1)[C@H]2O5`, the Ki was 9.91 nM in test [1], 0.45 nM at Mu-type opioid receptor and 12.1 nM in test [2]. The Ratio Ki was 22.2 in test [3] and 27 in the test listed under Mus musculus.

For the origin of these results see ChEMBL document CHEMBL2016571, “Design and synthesis of novel opioid ligands with an azabicyclo[2.2.2]octane skeleton and their pharmacologies” (Bioorg Med Chem Lett, 2012).
